# Source: US20100286415A1, “SLEEP-IMPROVING AGENT” (OSAKA BIOSCIENCE INSTITUTE, priority 2007, published 2010)
# Experiments:
# Sprague-Dawley rats = test: EEG/EMG sleep recording in rats after oral administration (Test Example 1); type: in vivo, rat; details: 100 mg/kg oral, administered at start of dark period, compared to vehicle (water), FIG. 1
# Method: Sprague-Dawley rats (male, 8 weeks old, weighing 250-280 g) were purchased from Japan SLC, Inc.
# The rats were individually housed in acrylic cages placed in a sound insulation chamber. They were given solid rat food (food name: Labo MR Stock) in a 12-hour light and dark cycle (light period starting at 7 a.m.), with free access to food and drinking water.
# (§1) An operation to implant electrodes for measuring EEG/EMG was performed on the rats (Huang Z. L. et al., J. Neurosci. 2003, 23(14), 5975-83., Okada T. et al., Biochem. Biophys. Res. Commun. 2003, 312(1), 29-34). The rats were placed in a chamber for recovery for 10 days, and recovered. Then, the rats were moved to a chamber for recording, and measurement cables were connected to the electrodes. The rats were adapted to the environment for 4 days.
# Oxypinnatanine was dissolved in water, and a dosage of 100 mg/kg was orally administered using a probe. Administration was carried out at 19:00 (starting time of a dark period). […]
# (§2) The EEG and EMG were amplified (EEG: 0.5-30 Hz, EMG: 20-200 Hz), and then digitalized at a sampling speed of 128 Hz for recording. […] EEG data over 12 hours after administration were analyzed. Then, waking time, non-REM sleep time, and REM sleep time per hour were calculated. Further, the EEG power spectrum was analyzed, and the amplitudes of theta waves and delta waves were thereby analyzed.
# C57BL/6 mice = test: EEG/EMG sleep recording in mice after oral administration (Test Example 3); type: in vivo, mouse; details: 10 mg/kg oral, administered at start of dark period, compared to vehicle (water), FIG. 3
# Method: C57BL/6 mice (male, 10 weeks old, weighing 25-28 g) were purchased from Oriental BioService Inc.
# The mice were individually housed in acrylic cages placed in a sound insulation chamber. They were given solid mouse food (food name: Labo MR Stock) in a 12-hour light and dark cycle (light period starting at 8 a.m.), with free access to food and drinking water.
# as §1, with “mice.” for “rats (Huang Z. L. et al., J. Neurosci. 2003, 23(14), 5975-83., Okada T. et al., Biochem. Biophys. Res. Commun. 2003, 312(1), 29-34).”, “mice” for “rats”
# (§3) Oxypinnatanine was dissolved in water, and a dosage of 10 mg/kg was orally administered using a probe. Administration was carried out at 20:00 (starting time of a dark period). On day 1, water was solely administered as a control containing only the solvent. On day 2, oxypinnatanine was administered (n=4).
# as §2, with “at the” for “at a”
# Slc:ICR mice = test: Locomotor assay (amount of locomotion) in mice, infrared monitor (Test Example 2); type: in vivo, mouse; details: 100 mg/kg oral, administered at start of dark period, compared to vehicle (water), FIG. 2
# Method: Slc:ICR mice (male, 10 weeks old, weighing 38-40 g) were purchased from Japan SLC, Inc.
# The mice were housed in groups (8 mice per group) in acrylic cages placed in a chamber for monitoring the amount of animal behavior, and were habituated for 7 days. They were given solid rat food (food name: Labo MR Stock) in a 12-hour light and dark cycle (light period starting at 7 a.m.), with free access to food and drinking water.
# as §3, with “dosage weight” for “dosage”, “100” for “10”, “19:00” for “20:00”, “(n=8).” for “(n=4).”
# An infrared monitor was used to detect infrared light emitted from the animals to count the amount of locomotion. The infrared monitor recorded continuously for 12 hours. Recording was conducted using a Biotex 16CH Act Monitor BAI2216 (Biotex). For analysis, the time-dependent change in the amount of locomotion and the total amount of locomotion in each hour were calculated.
Compound,melting point,Total non-REM sleep time during 6 hours after administration (Sprague-Dawley rats),Total non-REM sleep time during 4 hours after administration (C57BL/6 mice),Total amount of locomotion during 6 hours after administration (Slc:ICR mice)
"NC(CC(O)C(=O)NC1OCC=C1CO)C(=O)O (stereo not shown) (hydrate or solvate) [Oxypinnatanine, oxypinnatanine]",152 to 153 °C (dec.),–,–,–
"NC(CC(O)C(=O)NC1OCC=C1CO)C(=O)O (stereo not shown) [Oxypinnatanine, oxypinnatanine]",–,effect of increasing non-REM sleep time,effect of increasing non-REM sleep time with statistical significance,statistically significant decrease in the amount of locomotion
